# Read-outs that look alike come from different tables or passages of the source.
# Assays:
# GSK3α [1] = molecular target: T1, GSK3α (Homo sapiens, UniProt P49840); details: for IC50: read-out: Caliper Assay, GSK3α IC50
# Procedure: (§1) Reactions were terminated by the addition of 10 mM EDTA. Substrate and product were separated electrophoretically and fluorescence intensity of the substrate and product was determined by Labchip EZ Reader II (Caliper Life Sciences, MA). The kinase activity was measured as percent conversion. The reactions were performed in duplicate for each sample. […] The results were analyzed by Genedata Assay Analyzer. The percent inhibition was plotted against the compound concentration and the IC50 value was determined from the logistic dose-response curve fitting.
# GSK3β [2] = molecular target: T2, GSK3β (Homo sapiens, UniProt P49841); test: biochemical
# GSK3α [3] = molecular target: T1, GSK3α; test: biochemical
# Procedure: as §1
# GSK3β [4] = molecular target: T2, GSK3β; details: Caliper assay; GSK3β over GSK3α
# [5] = Caliper assay, GSK3α over GSK3β
# T1 sequence (P49840 whole entry): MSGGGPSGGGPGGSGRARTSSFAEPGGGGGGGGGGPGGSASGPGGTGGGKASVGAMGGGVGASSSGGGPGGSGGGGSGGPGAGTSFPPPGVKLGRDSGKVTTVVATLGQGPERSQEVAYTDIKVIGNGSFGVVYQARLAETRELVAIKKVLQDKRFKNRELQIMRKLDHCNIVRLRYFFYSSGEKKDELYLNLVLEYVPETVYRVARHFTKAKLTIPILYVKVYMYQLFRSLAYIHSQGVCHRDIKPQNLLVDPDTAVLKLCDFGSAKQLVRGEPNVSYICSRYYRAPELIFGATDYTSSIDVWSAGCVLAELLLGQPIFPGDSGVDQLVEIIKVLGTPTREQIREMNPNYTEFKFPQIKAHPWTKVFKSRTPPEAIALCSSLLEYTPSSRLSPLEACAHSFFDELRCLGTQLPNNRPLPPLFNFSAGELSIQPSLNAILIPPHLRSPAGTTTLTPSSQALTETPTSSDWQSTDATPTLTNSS
# T2 sequence (P49841 whole entry): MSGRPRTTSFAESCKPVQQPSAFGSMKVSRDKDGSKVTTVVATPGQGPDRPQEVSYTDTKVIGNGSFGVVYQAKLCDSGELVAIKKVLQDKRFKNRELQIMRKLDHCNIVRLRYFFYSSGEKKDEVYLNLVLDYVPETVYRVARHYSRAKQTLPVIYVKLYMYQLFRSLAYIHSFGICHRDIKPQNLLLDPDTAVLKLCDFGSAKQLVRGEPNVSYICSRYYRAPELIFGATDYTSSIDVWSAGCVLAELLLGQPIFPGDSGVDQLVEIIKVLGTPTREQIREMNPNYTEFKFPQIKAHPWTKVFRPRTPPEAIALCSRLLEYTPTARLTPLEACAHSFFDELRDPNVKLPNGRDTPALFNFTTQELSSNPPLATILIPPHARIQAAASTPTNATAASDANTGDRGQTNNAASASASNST
GSK3α fold selectivity (GSK3α [1]; [5]),IC50 (GSK3β [2]),IC50 (GSK3α [3]),GSK3α fold selectivity (GSK3α [1]; GSK3α over GSK3β),GSK3β fold selectivity (GSK3β [4]),SMILES,IC50 (GSK3α [1]),GSK3α fold selectivity (GSK3α [1])
3.8 fold,0.901 µM,0.239 µM,–,–,CC1(C)CC(=O)C2=C(C1)Nc1n[nH]cc1C2(C)c1cccc(F)c1 (racemic) [Compound 201],–,–
10.0 fold,0.004 µM,0.0004 µM,–,–,CC1(C)CC(=O)C2=C(C1)Nc1n[nH]cc1C2(C)c1cccc(C(F)(F)F)c1 (racemic) [Compound 206],–,–
5.8 fold,0.312 µM,0.054 µM,–,–,CCC1(c2cccc(Cl)c2)C2=C(CC(C)(C)CC2=O)Nc2n[nH]cc21 (racemic) [Compound 218],–,–
6.6 fold,0.086 µM,0.013 µM,–,–,CCC1(c2cccc(C(C)(C)C)c2)C2=C(CC(C)(C)CC2=O)Nc2n[nH]cc21 (racemic) [Compound 225],–,–
4.7 fold,1.31 µM,0.28 µM,–,–,CCCC1(c2ccccc2)C2=C(CC(C)(C)CC2=O)Nc2n[nH]cc21 (racemic) [Compound 228],–,–
2.9 fold,1.89 µM,0.644 µM,–,–,CC(C)C1(c2ccccc2)C2=C(CC(C)(C)CC2=O)Nc2n[nH]cc21 (racemic) [Compound 231],–,–
6.4 fold,7.86 µM,1.23 µM,–,–,CCC1(c2ccccc2)C2=C(CC3(COC3)CC2=O)Nc2n[nH]cc21 (racemic) [Compound 236],–,–
1.9 fold,0.043 µM,0.023 µM,–,–,CCC1(c2ccccc2)C2=C(CC(C)(C)CC2=O)Nc2n[nH]c(C3CC3)c21 (racemic) [Compound 244],–,–
2.7 fold,1.24 µM,0.465 µM,–,–,CC1(C)CC(=O)C2=C(C1)Nc1n[nH]cc1[C@]2(C)c1cccc(F)c1 (stereo in doubt) [Compound 202],–,–
3.0 fold,28.9 µM,9.6 µM,–,–,CC1(C)CC(=O)C2=C(C1)Nc1n[nH]cc1[C@@]2(C)c1cccc(F)c1 (stereo in doubt) [Compound 203],–,–
4.7 fold,0.173 µM,0.037 µM,–,–,CC1(C)CC(=O)C2=C(C1)Nc1n[nH]cc1[C@]2(C)c1cccc(Cl)c1 (stereo in doubt) [Compound 204],–,–
7.1 fold,33.4 µM,4.72 µM,–,–,CC1(C)CC(=O)C2=C(C1)Nc1n[nH]cc1[C@@]2(C)c1cccc(Cl)c1 (stereo in doubt) [Compound 205],–,–
7.0 fold,0.014 µM,0.002 µM,–,–,CC1(C)CC(=O)C2=C(C1)Nc1n[nH]cc1[C@]2(C)c1cccc(C(F)(F)F)c1 (stereo in doubt) [Compound 207],–,–
6.4 fold,1.45 µM,0.225 µM,–,–,CC1(C)CC(=O)C2=C(C1)Nc1n[nH]cc1[C@@]2(C)c1cccc(C(F)(F)F)c1 (stereo in doubt) [Compound 208],–,–
5.0 fold,0.03 µM,0.006 µM,–,–,CC1(C)CC(=O)C2=C(C1)Nc1n[nH]cc1[C@]2(C)c1cccc(C#N)c1 (stereo in doubt) [Compound 209],–,–
3.8 fold,8.86 µM,2.35 µM,–,–,CC1(C)CC(=O)C2=C(C1)Nc1n[nH]cc1[C@@]2(C)c1cccc(C#N)c1 (stereo in doubt) [Compound 210],–,–
6.7 fold,0.388 µM,0.058 µM,–,–,CC[C@@]1(c2cccc(F)c2)C2=C(CC(C)(C)CC2=O)Nc2n[nH]cc21 (stereo in doubt) [Compound 214],–,–
>3.5 fold,> 33 µM,9.55 µM,–,–,CC[C@]1(c2cccc(F)c2)C2=C(CC(C)(C)CC2=O)Nc2n[nH]cc21 (stereo in doubt) [Compound 215],–,–
9.0 fold,4.04 µM,0.45 µM,–,–,CC[C@@]1(c2cc(F)cc(F)c2)C2=C(CC(C)(C)CC2=O)Nc2n[nH]cc21 (stereo in doubt) [Compound 216],–,–
8.8 fold,0.079 µM,0.009 µM,–,–,CC[C@@]1(c2cccc(Cl)c2)C2=C(CC(C)(C)CC2=O)Nc2n[nH]cc21 (stereo in doubt) [Compound 219],–,–
6.8 fold,24.4 µM,3.61 µM,–,–,CC[C@]1(c2cccc(Cl)c2)C2=C(CC(C)(C)CC2=O)Nc2n[nH]cc21 (stereo in doubt) [Compound 220],–,–
8.9 fold,0.929 µM,0.104 µM,–,–,CC[C@@]1(c2cc(Cl)cc(Cl)c2)C2=C(CC(C)(C)CC2=O)Nc2n[nH]cc21 (stereo in doubt) [Compound 221],–,–
6.4 fold,11.3 µM,1.75 µM,–,–,CC[C@]1(c2cc(Cl)cc(Cl)c2)C2=C(CC(C)(C)CC2=O)Nc2n[nH]cc21 (stereo in doubt) [Compound 222],–,–
7.5 fold,0.015 µM,0.002 µM,–,–,CC[C@@]1(c2cccc(C(F)(F)F)c2)C2=C(CC(C)(C)CC2=O)Nc2n[nH]cc21 (stereo in doubt) [Compound 223],–,–

GSK3α fold selectivity (GSK3α [1]; [5]),IC50 (GSK3β [2]),IC50 (GSK3α [3]),GSK3α fold selectivity (GSK3α [1]; GSK3α over GSK3β),GSK3β fold selectivity (GSK3β [4]),SMILES,IC50 (GSK3α [1]),GSK3α fold selectivity (GSK3α [1])
5.3 fold,20.5 µM,3.9 µM,–,–,CC[C@]1(c2cccc(C(F)(F)F)c2)C2=C(CC(C)(C)CC2=O)Nc2n[nH]cc21 (stereo in doubt) [Compound 224],–,–
2.3 fold,8.35 µM,3.63 µM,–,–,CC[C@]1(c2cccc(C(C)(C)C)c2)C2=C(CC(C)(C)CC2=O)Nc2n[nH]cc21 (stereo in doubt) [Compound 227],–,–
1.9 fold,1.89 µM,0.97 µM,–,–,CCC[C@@]1(c2ccccc2)C2=C(CC(C)(C)CC2=O)Nc2n[nH]cc21 (stereo in doubt) [Compound 229],–,–
4.4 fold,4.4 µM,1.01 µM,–,–,CC(C)[C@@]1(c2ccccc2)C2=C(CC(C)(C)CC2=O)Nc2n[nH]cc21 (stereo in doubt) [Compound 232],–,–
1.6 fold,7.29 µM,4.54 µM,–,–,CC(C)[C@]1(c2ccccc2)C2=C(CC(C)(C)CC2=O)Nc2n[nH]cc21 (stereo in doubt) [Compound 233],–,–
6.4 fold,1.03 µM,0.16 µM,–,–,CC[C@@]1(c2ccccc2)C2=C(CC3(CCCCC3)CC2=O)Nc2n[nH]cc21 (stereo in doubt) [Compound 234],–,–
4.2 fold,4.85 µM,1.15 µM,–,–,CC[C@@]1(c2ccccc2)C2=C(CC3(COC3)CC2=O)Nc2n[nH]cc21 (stereo in doubt) [Compound 237],–,–
9.6 fold,1.44 µM,0.15 µM,–,–,CC[C@@]1(c2ccccc2)C2=C(CC(C)(C)CC2=O)Nc2n[nH]c(F)c21 (stereo in doubt) [Compound 239],–,–
>2.7 fold,> 33 µM,12.3 µM,–,–,CC[C@]1(c2ccccc2)C2=C(CC(C)(C)CC2=O)Nc2n[nH]c(F)c21 (stereo in doubt) [Compound 240],–,–
1.1 fold,0.031 µM,0.028 µM,–,–,CC[C@@]1(c2ccccc2)C2=C(CC(C)(C)CC2=O)Nc2n[nH]c(C3CC3)c21 (stereo in doubt) [Compound 245],–,–
1.2 fold,7.5 µM,6.37 µM,–,–,CC[C@]1(c2ccccc2)C2=C(CC(C)(C)CC2=O)Nc2n[nH]c(C3CC3)c21 (stereo in doubt) [Compound 246],–,–
–,–,–,–,–,"Cc1[nH]nc2c1[C@@](c1ccccc1)(C(F)(F)F)C1=C(CC(C)(C)CC1=O)N2 [Compound 93, 1,6,6-trimethyl-9-phenyl-9-(trifluoromethyl)-5,6,7,9-tetrahydro-2H-pyrazolo[3,4-b]quinolin-8(4H)-one]",< 0.1 µM,–
–,–,–,5.9 fold,–,"Cc1[nH]nc2c1[C@@](C)(c1cccc(C#N)c1)C1=C(CC(C)(C)CC1=O)N2 [Compound 97, 3-(1,6,6,9-tetramethyl-8-oxo-4,5,6,7,8,9-hexahydro-2H-pyrazolo[3,4-b]quinolin-9-yl)benzonitrile]",–,–
–,–,–,1.9 fold,–,Cc1[nH]nc2c1C1(CCCC1)C1=C(CC(C)(C)CC1=O)N2 [Compound 102],–,–
–,–,–,1.5 fold,–,COC(=O)c1[nH]nc2c1C(C)(c1ccccc1)C1=C(CC(C)(C)CC1=O)N2 (stereo not drawn) [Compound 104],–,–
–,–,–,1.8 fold,–,CC1(C)CC(=O)C2=C(C1)Nc1n[nH]c(Cl)c1C2(C)c1ccccc1 (stereo not drawn) [Compound 110],–,–
–,–,–,3.1 fold,–,CC1(C)CC(=O)C2=C(C1)Nc1n[nH]c(Br)c1C2(C)c1ccccc1 (stereo not drawn) [Compound 111],–,–
–,–,–,1.1 fold,–,CC1(C)CC(=O)C2=C(C1)Nc1n[nH]c(C3CC3)c1C2(C)c1ccccc1F (stereo not drawn) [Compound 116],–,–
–,–,–,–,–,CC1(C)CC(=O)C2=C(C1)Nc1n[nH]c(C3CC3)c1C2(C)c1cccc(C(F)(F)F)c1 (stereo not drawn) [Compound 118],–,1.1 fold
–,< 0.1 µM,–,3.6 fold,–,Cc1[nH]nc2c1[C@](C)(c1ccccc1)C1=C(CC(C)(C)CC1=O)N2 [Compound 123],–,–
–,0.042 µM,0.462 µM,–,11.0 fold,CCc1ccccc1[C@@H]1C2=C(CC(C)(C)CC2=O)Nc2n[nH]c(C(C)C)c21 [Compound 322],–,–
–,0.02 µM,0.271 µM,–,13.6 fold,COc1cc(F)ccc1[C@H]1C2=C(CC(C)(C)CC2=O)Nc2n[nH]c(C(C)C)c21 [Compound 323],–,–
–,0.332 µM,0.92 µM,–,2.8 fold,COc1cc(F)ccc1[C@@H]1C2=C(CC(C)(C)CC2=O)Nc2n[nH]c(C(C)C)c21 [Compound 324],–,–

SMILES,GSK3α fold selectivity (GSK3α [1]; [5]),IC50 (GSK3β [2]),IC50 (GSK3α [3]),GSK3α fold selectivity (GSK3α [1]; GSK3α over GSK3β),GSK3β fold selectivity (GSK3β [4]),IC50 (GSK3α [1]),GSK3α fold selectivity (GSK3α [1])
CC1(C)CC(=O)C2=C(C1)Nc1n[nH]c(C(F)(F)F)c1C2c1cccc(OC(F)(F)F)c1 (stereo not drawn) [Compound 57],–,< 0.1 µM,–,–,–,< 0.1 µM,–
